According to patent US7812031B2, “Pyrimidine derivatives as orexin receptor antagonists” (Sanofi-Aventis, priority 2004, dated 2010):

What was measured:
[1] = molecular target: T1, human recombinant orexin-1 (hr-OX-1) receptor (Homo sapiens, UniProt O43613); experiment: hr-125I-orexin-A radioligand competition binding, orexin-1 receptor; details: displacement of 125I-orexin-A, CHO-hr-OX-1 plasmamembranes, 25° C., 60 minutes; read-out: Orex-1 IC50
T1 construct: expressed in transfected cells; host or cells: CHO (CHO-hr-OX-1 cells), purified plasma membrane fraction
T1 sequence (O43613 1-425): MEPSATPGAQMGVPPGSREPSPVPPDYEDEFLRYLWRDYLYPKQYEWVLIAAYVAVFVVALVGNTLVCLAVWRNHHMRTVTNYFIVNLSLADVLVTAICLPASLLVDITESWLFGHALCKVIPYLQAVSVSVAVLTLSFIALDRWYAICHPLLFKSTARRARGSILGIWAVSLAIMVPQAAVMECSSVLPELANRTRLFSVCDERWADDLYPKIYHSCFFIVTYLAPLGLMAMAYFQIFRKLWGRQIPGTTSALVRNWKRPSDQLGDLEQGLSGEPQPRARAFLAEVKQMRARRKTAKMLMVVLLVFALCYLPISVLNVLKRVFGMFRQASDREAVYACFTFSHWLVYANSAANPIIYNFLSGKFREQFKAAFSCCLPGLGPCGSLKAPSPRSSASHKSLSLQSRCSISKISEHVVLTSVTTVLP
Description: (§1) In vitro radioligand binding assays were used for determination of the affinities of the compounds for both the orexin-1 and orexin-2 receptors.
(§2) In the frame of hr-^125I-orexin-A radioligand competition (displacement) experiments a fixed concentration of hr-^125I-orexin-A is incubated with increasing concentrations of unlabeled test compound in the presence of highly purified plasmamembranes bearing either the human recombinant orexin-1 (hr-OX-1) or the human recombinant orexin-2 (hr-OX-2) receptors. Specific binding of hr-^125I-orexin-A to plasmamembranes is measured at each concentrations of the unlabeled compound and thus a competition curve is generated. The concentration of unlabeled compound displacing 50% of specific binding (IC50) is calculated. In case of competitive interaction the binding affinity constant of the unlabeled compound (K1) is calculated according to the Cheng-Prusoff equation (K1=IC50/(1+L*/KD). Affinity of unlabeled compound for the receptor is equal to 1/K1.
(§3) Culturing the Chinese hamster ovarian cells expressing human recombinant orexin-1 or orexin-2 receptor proteins (CHO-hr-OX-1 or CHO-hr-OX-2 cells) was carried out in cell culture medium (MEM medium, supplemented with 40 mg/l prolin, 20 mg/l gentamycin, 300 mg/l geneticin, 10% dialysed fetal calf serum).
(§4) Adherent cells were plated into Greiner flasks (175 cm^2). 4-6 days later culture medium was removed and cells were scarped in calcium- and magnesium-free phosphate buffered saline (PBS, 20 ml/flask). The cell suspension was centrifuged at 1,000 g for 5 minutes (4° C.). The resulting pellet was resuspended and homogenized with a teflon pestle (4° C.), then layered onto a discontinuous sucrose gradient and centrifuged at 105,000 g. Plasmamembrane fraction accumulated in the interface between 14 and 34% sucrose layers was separated and pelleted by a further centrifugation step at 105,000 g for 60 min (4° C.). The final pellet was resuspended in binding assay buffer and stored at −80° C. up to the day of radioligand binding experiment.
(§5) For ^125I-orexin-A competition binding studies, aliquots of cell membrane fractions containing either hr-orexin-1 or hr-orexin-2 receptors were incubated with ^125I-orexin-A in binding assay buffer at 25° C. for 60 minutes. Nonspecific binding was defined by 1 μM hr-orexin-A in both cases.
(§6) Test compounds were dissolved at a concentration of 1 mM in dimethylsulfoxide (DMSO). Serial dilution series were prepared from stock solutions (100% DMSO) with binding assay buffer in such a way that each samples contained a final concentration of 1% of DMSO in the receptor binding reaction mixture. After the incubation, samples were filtered through Whatman GF/C glass fibre filters using a SKATRON cell harvester, and the filters were washed with 5 ml of ice-cold buffer The radioactivity remained on the filter was counted in a gamma counter (Wallac Automatic Gamma Counter 1470 Wizard).

[2] = molecular target: T2, human recombinant orexin-2 (hr-OX-2) receptor (Homo sapiens, UniProt O43614); experiment: hr-125I-orexin-A radioligand competition binding, orexin-2 receptor; details: displacement of 125I-orexin-A, CHO-hr-OX-2 plasmamembranes, 25° C., 60 minutes; read-out: Orex-2 IC50
T2 construct: expressed in transfected cells; host or cells: CHO (CHO-hr-OX-2 cells), purified plasma membrane fraction
T2 sequence (O43614 1-444): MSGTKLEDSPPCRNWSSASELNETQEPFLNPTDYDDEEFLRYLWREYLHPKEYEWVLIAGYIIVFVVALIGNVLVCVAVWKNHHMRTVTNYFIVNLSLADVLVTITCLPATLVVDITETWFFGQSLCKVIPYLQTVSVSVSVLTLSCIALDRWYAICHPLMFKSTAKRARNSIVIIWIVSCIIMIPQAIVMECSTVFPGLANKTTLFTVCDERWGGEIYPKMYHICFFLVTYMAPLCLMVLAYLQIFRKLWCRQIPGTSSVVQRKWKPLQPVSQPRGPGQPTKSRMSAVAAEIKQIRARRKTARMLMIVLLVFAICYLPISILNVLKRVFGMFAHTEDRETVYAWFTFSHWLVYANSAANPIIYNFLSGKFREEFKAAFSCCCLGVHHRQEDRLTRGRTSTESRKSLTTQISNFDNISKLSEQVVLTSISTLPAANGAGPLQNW
Description: as §1, §2, §3, §4, §5, §6

melting point [°C] | IC50 [1] [nM] | IC50 [2] [nM] | Structure (SMILES)
85 to 87 | – | – | CN(CC(O)c1cccc(O)c1)C(=O)c1cnc(NCc2cccs2)nc1-c1ccccc1 (centres unmarked) (hydrate or solvate) [Example 17, 4-Phenyl-2-[(thiophen-2-ylmethyl)amino]pyrimidine-5-carboxylic acid [2-hydroxy-2-(3-hydroxyphenyl)ethyl]methylamide]
– | 11 | 6700 | CN(Cc1ccccc1)c1ncc(C(=O)N2CCCCC2C(O)c2ccccc2)c(-c2ccccc2)n1 (racemic)
68 to 70 | – | – | CN(CC(O)c1cccc(OCc2ccccc2)c1)C(=O)c1cnc(N(C)C)nc1-c1ccc(Cl)c(Cl)c1 (centres unmarked) [Example 59, 2-Dimethylamino-4-(3,4-dichlorophenyl)pyrimidine-5-carboxylic acid [2-(3-benzyloxyphenyl)-2-hydroxyethyl]methylamide]

The next lines start with the compound.

Structure (SMILES) | melting point [°C] | IC50 [1] [nM] | IC50 [2] [nM]
CN(CC(O)c1cccc(OC(=O)C(C)(C)C)c1)C(=O)c1cnc(N(C)C)nc1-c1ccccc1Cl (centres unmarked) [2,2-Dimethylpropionic acid 3-{2-[(2-dimethylamino-4-(2-chlorophenyl)pyrimidine-5-carbonyl)methylamino]1-hydroxyethyl}phenyl ester] | – | 30 | 2900
Cc1ccccc1-c1nc(N(C)Cc2ccccc2)ncc1C(=O)N(C)CC(O)c1cccc(O)c1 (centres unmarked) [2-(Benzylmethylamino)-4-(2-methylphenyl)pyrimidine-5-carboxylic acid [2-hydroxy-2-(3-hydroxyphenyl)ethyl]methylamide] | – | 22 | 5800
COc1ccccc1C(=O)Nc1cccc(C(O)CN(C)C(=O)c2cnc(N(C)C)nc2-c2ccccc2)c1 (centres unmarked) [2-Dimethylamino-4-phenylpyrimidin-5-carboxylic acid {2-hydroxy-2-[3-(2-methoxy-benzoylamino)phenyl]ethyl}methylamide] | – | 15 | 320
CN(CC(O)c1cccc(OCc2ccccc2)c1)C(=O)c1cnc(N(C)C)nc1-c1ccccc1 (centres unmarked) [2-Dimethylamino-4-phenylpyrimidine-5-carboxylic acid [2-(3-benzyloxyphenyl)-2-hydroxyethyl]methylamide] | – | 30 | 3600
CC(C(O)c1ccccc1)N(C)C(=O)c1cnc(NCc2ccccn2)nc1-c1ccccc1 (centres unmarked) [4-Phenyl-2-[(pyridin-2-ylmethyl)amino]pyrimidin-5-carboxylic acid (2-hydroxy-1-methyl-2-phenylethyl)methylamide] | – | 12 | 5400
